# Reference: patent publication US6376488B1, “Benzoxazine α-1 adrenergic compounds” (Abbott Laboratories, priority 2000, dated 2002)
# Counter-ions that a name gives are not always drawn.
# Key:
# α1d (rat) adrenoreceptor = molecular target: T1, α1d (rat) adrenoreceptor (Rattus norvegicus, UniProt P23944); test: [3H]-prazosin radioligand binding, cloned α1d (rat) adrenoreceptor in LTK cells; conditions: cloned receptor in LTK cell membranes, [3H]prazosin 0.2 nM
# T1 sequence (P23944 1-561): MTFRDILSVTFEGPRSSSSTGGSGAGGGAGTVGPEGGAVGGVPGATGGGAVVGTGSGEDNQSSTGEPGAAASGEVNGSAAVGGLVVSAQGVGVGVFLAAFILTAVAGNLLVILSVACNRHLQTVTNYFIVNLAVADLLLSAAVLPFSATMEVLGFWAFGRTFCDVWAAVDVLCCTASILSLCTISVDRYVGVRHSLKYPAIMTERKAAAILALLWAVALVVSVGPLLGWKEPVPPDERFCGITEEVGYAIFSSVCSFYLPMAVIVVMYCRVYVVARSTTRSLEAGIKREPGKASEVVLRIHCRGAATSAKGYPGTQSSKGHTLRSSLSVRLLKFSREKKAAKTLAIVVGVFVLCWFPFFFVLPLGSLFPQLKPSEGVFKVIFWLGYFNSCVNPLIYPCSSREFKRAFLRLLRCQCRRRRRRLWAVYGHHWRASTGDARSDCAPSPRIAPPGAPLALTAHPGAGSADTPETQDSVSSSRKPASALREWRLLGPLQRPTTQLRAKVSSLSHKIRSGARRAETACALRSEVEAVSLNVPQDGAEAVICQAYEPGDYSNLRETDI
# Method: (§1) Representative compounds of the invention were evaluated for α adrenoreceptor binding affinity in vitro using [^3H]-prazosin as the radioligand and following four cloned α1, adrenoreceptors expressed in LTK cells: α1a (rat), α1a (bovine), α1b : (hampster), and α1d (rat).
# (§2) The cDNA clones encoding the α1, adrenoreceptors were obtained from TULCO (Triangle Universities Licensing Consortium, Research Triangle Park, N.C.) and inserted into the eukaryotic expression vector SnaB30. In this vector, expression of the adrenoreceptor gene is under the transcriptional control of an SV40 early promoter. Positive drug selection is provided by a neomycin-resistance gene. Mouse fibroblast cells (LTK) were transfected with the α1 expression plasmids and grown in Dulbecco's modified Eagle's medium (DMEM) containing 10% fetal calf serum and 30 μM G418. Stable G418-resistant parental lines were generated with successful expression of adrenoreceptor protein monitored using radioligand binding techniques. Stable single cell clones derived from the parental lines were screened in adrenoreceptor binding assays to identify clones having high adrenoreceptor density. Roller bottle cultures of the cloned lines were used to provide cell membranes for subsequent adrenoreceptor binding characterization studies. A cell line containing the SnaB30 vector expressing the human erythropoietin gene served as a negative control.
# (§3) For adrenoreceptor binding assays, large scale membrane preparations were utilized in which 6 million cells were seeded into small (450 cm^2) Coming tissue culture roller bottles. DMEM (200 mL) containing 10% fetal calf serum and 300 μM G418 were added to each roller bottle. A 95% air/5% CO2 gas mixture (sterile) was injected into each roller bottle prior to sealing, and the bottles were then incubated at 37° C. on a roller rack for 5 days. Cells were refed with fresh medium after 3 days in culture.
# (§4) On the fifth day of culture, growth medium was removed from cells grown in roller bottles, and the cells were washed twice with PBS (Sigma, 120 mM NaCl, 2.7 mM KCl, 10 mM Na2HPO4-NaH2PO4, pH=7.4). Cells were detached from the roller bottles by incubating for 15 minutes at 37° C. in a Tris-EDTA solution (10 mM Tris, 100 mM NaCl, 1 mM EDTA, pH=7.4). The cell suspension from each roller bottle was decanted into tared centrifuge tubes and kept on ice. An aliquot of each cell suspension was generally taken for cell counting. Cells were centrifuged at 3000×G for 5 minutes at 2-4° C., washed with PBS and recentrifuged. The supernatant was decanted, and the pellet was weighed to determine the wet weight of cells. Cells were washed a final time in 40 vol 5 mM Tris-HCl, 5 mM EDTA, pH=7.7 and centrifuged at 40,000×G for 10 minutes (“vol” indicates volume/weight, e.g., a “vol” of 40 would indicate that the one gram of cells were washed with 40 mls of buffer). Cells were homogenized in of 50 mM Tris-HCl, 5 mM EDTA (pH=7.4) (10 mL) and diluted to 40 mL/tube. Homogenates were centrifuged at 40,000×G for 10 minutes. The supernatant was decanted and the pellets rehomogenized in 50 mM Tris-HCl (pH=7.4) and centrifuged as before. The supernatant was decanted and the homogenate was resuspended in 6.25 volumes (per gram wet weight) of 50 mM Tris-HCl and aliquots of the pooled homogenates frozen in liquid N2 and,stored at −70° C. until the time of assay.
# (§5) Receptor binding assays for α1 adrenoreceptors were performed essentially as described by Greengrass and Bremner (Eur. J. Pharmacol. 55: 323-326 (1979)). […] Following equilibration, bound radioligand was separated from free on GF/B filters (presoaked in 0.5% polyethyleneimine) using ither a Brandel or Packard cell harvester. Radioactivity was determined by standard liquid scintillation techniques. Data were analyzed as previously described (Hancock, A. A., Kyncl, J. J., Martin, Y. C. and DeBemardis, J. F., J. Receptor Res. 8: 23-46 (1988)). The in Table 1.
# [1] = molecular target: T2, α1a (bovine) adrenoreceptor (Bos taurus, UniProt P18130); test: [3H]-prazosin radioligand binding, cloned α1a (bovine) adrenoreceptor in LTK cells; conditions: cloned receptor in LTK cell membranes, [3H]prazosin 0.2 nM
# T2 sequence (P18130 1-466): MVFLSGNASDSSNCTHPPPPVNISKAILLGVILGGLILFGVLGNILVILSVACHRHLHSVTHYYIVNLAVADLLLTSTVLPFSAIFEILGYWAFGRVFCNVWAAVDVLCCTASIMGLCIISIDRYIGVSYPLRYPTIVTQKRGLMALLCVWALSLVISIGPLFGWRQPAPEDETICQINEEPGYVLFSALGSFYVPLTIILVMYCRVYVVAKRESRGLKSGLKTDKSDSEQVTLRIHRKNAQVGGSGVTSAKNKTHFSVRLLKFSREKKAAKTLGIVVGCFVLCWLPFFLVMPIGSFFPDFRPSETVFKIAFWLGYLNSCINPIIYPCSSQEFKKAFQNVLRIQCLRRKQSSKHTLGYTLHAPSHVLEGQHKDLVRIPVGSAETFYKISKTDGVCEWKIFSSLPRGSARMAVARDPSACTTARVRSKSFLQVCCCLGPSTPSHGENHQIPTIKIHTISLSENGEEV
# Method: as §1, §2, §3, §4, §5
Ki (α1d (rat) adrenoreceptor) [nM],Ki [1] [nM],Compound
0.427,0.387,"COc1cccc2c1N1CCN(CCCCn3c(=O)[nH]c4c(sc5ncccc54)c3=O)CC1CO2 (single isomer, unassigned; (-)) [Example 11, (−) 3-[4-(10-methoxy-1,2,4a,5-tetrahydropyrazino[2,1-c][1,4]benzoxazin-3(4H)-yl)butyl]pyrido[3′,2′:4.5]thieno[3,2-d]pyrimidine-2,4(1H,3H)-dione trihydrochloride]"
1.15,0.41,"COc1cccc2c1N1CCN(CCCCn3c(=O)[nH]c4c(sc5ncc(Cl)nc54)c3=O)CC1CO2.Cl.Cl (single isomer, unassigned; (-)) [Example 12, (−) 3-[4-(10-methoxy-1,2,4a,5-tetrahydropyrazino[2,1-c][1,4]benzoxazin-3(4H)-yl)butyl]-8-chloropyrazino[2′,3′:4,5]thieno[3,2-d]pyrimidine-2,4(1H,3H)-dione dihydrochloride]"
3.52,0.685,"COc1cccc2c1N1CCN(CCn3c(=O)[nH]c4c(sc5ncc(Cl)nc54)c3=O)CC1CO2.Cl.Cl (single isomer, unassigned; (-)) [Example 13, (−) 3-[2-(10-methoxy-1,2,4a,5-tetrahydropyrazino[2,1-c][1,4]benzoxazin-3(4H)-yl)ethyl]-8-chloropyrazino[2′,3′:4,5]thieno[3,2-d]pyrimidine-2,4(1H,3H)-dione dihydrochloride]"

Compound,Ki (α1d (rat) adrenoreceptor) [nM],Ki [1] [nM]
"(−) 3-[3-(10-methoxy-1,2,4a,5-tetrahydropyrazino[2,1-c][1,4]benzoxazin-3(4H)-yl)butyl]pyrido[2′,3′:4,5]thieno[3,2-d]pyrimidine-2,4(1H,3H)-dione trihydrochloride [Example 10]",0.344,0.243
